From patent US11795169B2, “MAP4K4 inhibitors” (IMPERIAL COLLEGE INNOVATIONS LIMITED, priority 2017, dated 2023)
Where two headings read alike, the source gives them in different places. Values belong to the compound of their own block, whether it stands above or below them.

What was measured:
[1] = target: Aurora B (Homo sapiens (Human), UniProt Q96GD4); assay: Kinase selectivity panel: Aurora B; type: biochemical; conditions: for IC50: read-out: pIC50 Aurora B (converted)
Source text: (§1) Compounds of the present invention were screened for their inhibitory activity against MAP4K4, versus selected off-target hits found with early members of this chemical series. MAP4K4 kinase activity was monitored using the CisBio HTRF Transcreener ADP assay, acompetitive immunoassay with a reproducible Z′>0.6. In the detection step, endogenous ADP and d2-labeled ADP compete for binding an anti-ADP monoclonal antibody labelled with Eu^3+ cryptate. A ratiometric fluorescent read-out is used at 665 and 620 nm. […] Assays were run in Greiner low volume plates with a final reaction volume of 10 μl. The MAP4K4 inhibition data are provided in Table 33 below for selected compounds of the present invention. The data has been categorised based on the IC50 value of the compound as “A”, “B” or “C”.
(§2) The data in Table 34 also provides the fold selectivity of the two compounds in favour of MAP4K4 over the tested kinase. The fold selectivity is indicated in parenthesis.

[2] = target: MLK3/MAP3K11 (Homo sapiens (Human), UniProt Q16584); assay: Kinase selectivity panel: MLK3/MAP3K11; type: biochemical; conditions: for IC50: read-out: pIC50 MLK3/MAP3K11 (converted)
Source text: as §1, §2

[3] = target: ABL1 (Homo sapiens (Human), UniProt P00519); assay: Kinase selectivity panel: ABL1; type: biochemical; conditions: for IC50: read-out: pIC50 ABL1 (converted)
Source text: as §1, §2

[4] = target: FLT3 (Homo sapiens (Human), UniProt P36888); assay: Kinase selectivity panel: FLT3; type: biochemical; conditions: for IC50: read-out: pIC50 FLT3 (converted)
Source text: as §1, §2

[5] = target: GCK/MAP4K2 (Homo sapiens (Human), UniProt Q12851); assay: Kinase selectivity panel: GCK/MAP4K2; type: biochemical; conditions: for IC50: read-out: pIC50 GCK/MAP4K2 (converted)
Source text: as §1, §2

[6] = tested on: VEGFR; assay: Kinase selectivity panel: VEGFR; type: biochemical
Protocol: (§3) In the detection step, endogenous ADP and d2-labeled ADP compete for binding an anti-ADP monoclonal antibody labelled with Eu^3+ cryptate. […] Assays were run in Greiner low volume plates with a final reaction volume of 10 μl.
(§4) The fold selectivity is indicated in parenthesis.

[7] = target: KHS/MAP4K5 (Homo sapiens (Human), UniProt Q9Y4K4); assay: Kinase selectivity panel: KHS/MAP4K5; type: biochemical; conditions: for IC50: read-out: pIC50 KHS/MAP4K5 (converted)
Source text: as §1, §2

[8] = target: human MAP4K4 kinase domain (Homo sapiens (Human), UniProt O95819); assay: MAP4K4 kinase activity, CisBio HTRF Transcreener ADP assay; type: biochemical
Source text: as §1

[9] = target: GSK3β (Homo sapiens (Human), UniProt P49841); assay: Kinase selectivity panel: GSK3β; type: biochemical; conditions: for IC50: read-out: pIC50 GSK3β (converted)
Source text: as §1, §2

[10] = target: MLK1/MAP3K9 (Homo sapiens (Human), UniProt P80192); assay: Kinase selectivity panel: MLK1/MAP3K9; type: biochemical; conditions: for IC50: read-out: pIC50 MLK1/MAP3K9 (converted)
Source text: as §1, §2

[11] = target: TNIK/MAP4K7 (Homo sapiens (Human), UniProt Q9UKE5); assay: Kinase selectivity panel: TNIK/MAP4K7; type: biochemical; conditions: read-out: pIC50 TNIK/MAP4K7 (converted)
Source text: as §1, §2

[12] = target: GLK/MAP4K3 (Homo sapiens (Human), UniProt Q8IVH8); assay: Kinase selectivity panel: GLK/MAP4K3; type: biochemical; conditions: for IC50: read-out: pIC50 GLK/MAP4K3 (converted)
Source text: as §1, §2

[13] = target: MINK1/MAP4K6 (Homo sapiens (Human), UniProt Q8N4C8); assay: Kinase selectivity panel: MINK1/MAP4K6; type: biochemical; conditions: read-out: pIC50 MINK1/MAP4K6 (converted)
Source text: as §1, §2

[14] = tested on: CorV.4U cardiomyocytes (hiPSC-CMs); assay: Protection of CorV.4U cardiomyocytes from H2O2 or menadione (luminescent cell viability assay, human cardiac troponin assay); type: cell-based; conditions: Homo sapiens, Cardiomyocyte; read-out: EC50, protection of human cardiomyocytes
Source text: To substantiate the hypothesis that pharmacological inhibition of MAP4K4 would confer resistance to cell death in human cardiomyocytes, cytoprotection was next assessed using hiPSC-CMs.

[15] = tested on: NUAK; assay: Kinase selectivity panel: NUAK; type: biochemical
Protocol: as §3, §4

[16] = ATP at Km (10 μM), 0.5 nM kinase domain, 2 h, read-out: MAP4K4
[17] = read-out: pIC50 MAP4K4 (converted)

ABL1, sequence (P00519 whole entry, species assumed): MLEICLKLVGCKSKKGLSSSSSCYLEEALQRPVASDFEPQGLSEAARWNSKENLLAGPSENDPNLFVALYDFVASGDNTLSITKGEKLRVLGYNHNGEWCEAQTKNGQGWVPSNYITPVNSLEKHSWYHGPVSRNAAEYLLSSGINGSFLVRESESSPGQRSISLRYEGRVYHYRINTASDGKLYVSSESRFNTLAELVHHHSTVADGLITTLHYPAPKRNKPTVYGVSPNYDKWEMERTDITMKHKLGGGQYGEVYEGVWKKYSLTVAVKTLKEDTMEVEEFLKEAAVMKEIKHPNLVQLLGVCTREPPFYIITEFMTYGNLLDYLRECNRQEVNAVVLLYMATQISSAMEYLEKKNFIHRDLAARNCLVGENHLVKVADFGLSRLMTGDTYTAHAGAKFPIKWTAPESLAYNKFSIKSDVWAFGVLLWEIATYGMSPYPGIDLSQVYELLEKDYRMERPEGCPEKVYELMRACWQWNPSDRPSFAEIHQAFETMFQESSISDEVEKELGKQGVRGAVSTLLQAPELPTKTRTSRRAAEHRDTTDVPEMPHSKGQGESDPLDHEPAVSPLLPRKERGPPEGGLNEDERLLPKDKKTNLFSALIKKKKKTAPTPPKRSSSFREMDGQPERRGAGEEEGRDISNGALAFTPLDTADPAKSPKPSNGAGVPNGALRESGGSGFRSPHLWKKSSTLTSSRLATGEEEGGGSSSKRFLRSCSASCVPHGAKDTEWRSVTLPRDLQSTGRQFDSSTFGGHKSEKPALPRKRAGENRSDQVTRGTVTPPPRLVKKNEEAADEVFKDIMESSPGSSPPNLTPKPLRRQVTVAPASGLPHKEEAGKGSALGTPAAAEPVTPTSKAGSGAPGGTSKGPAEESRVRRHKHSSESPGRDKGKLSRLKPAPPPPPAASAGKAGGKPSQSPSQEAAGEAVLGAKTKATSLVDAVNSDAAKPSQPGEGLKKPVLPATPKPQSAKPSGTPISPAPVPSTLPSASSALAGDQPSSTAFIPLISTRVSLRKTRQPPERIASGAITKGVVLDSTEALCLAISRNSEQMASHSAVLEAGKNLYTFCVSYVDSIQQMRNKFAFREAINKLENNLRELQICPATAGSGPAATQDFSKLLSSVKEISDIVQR
human MAP4K4 kinase domain, sequence (O95819 25-289): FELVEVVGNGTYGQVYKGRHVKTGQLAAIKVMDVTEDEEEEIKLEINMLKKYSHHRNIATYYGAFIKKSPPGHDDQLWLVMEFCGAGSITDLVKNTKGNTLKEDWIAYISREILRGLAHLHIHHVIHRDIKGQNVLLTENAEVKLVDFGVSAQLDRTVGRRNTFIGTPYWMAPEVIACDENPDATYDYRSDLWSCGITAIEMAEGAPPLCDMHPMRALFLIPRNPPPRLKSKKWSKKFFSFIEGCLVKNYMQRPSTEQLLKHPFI
GSK3β, sequence (P49841 whole entry, species assumed): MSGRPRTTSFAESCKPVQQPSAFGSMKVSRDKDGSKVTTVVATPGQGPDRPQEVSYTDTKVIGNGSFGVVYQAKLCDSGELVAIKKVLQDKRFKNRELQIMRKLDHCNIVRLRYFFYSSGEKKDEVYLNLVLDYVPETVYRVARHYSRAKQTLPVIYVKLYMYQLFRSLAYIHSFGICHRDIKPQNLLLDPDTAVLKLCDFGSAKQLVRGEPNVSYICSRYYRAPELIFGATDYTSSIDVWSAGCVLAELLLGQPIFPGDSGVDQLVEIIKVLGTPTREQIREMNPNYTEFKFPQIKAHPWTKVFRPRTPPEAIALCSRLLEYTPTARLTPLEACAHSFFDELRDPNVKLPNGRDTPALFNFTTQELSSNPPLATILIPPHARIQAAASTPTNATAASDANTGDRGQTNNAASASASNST
MINK1/MAP4K6, sequence (Q8N4C8 whole entry): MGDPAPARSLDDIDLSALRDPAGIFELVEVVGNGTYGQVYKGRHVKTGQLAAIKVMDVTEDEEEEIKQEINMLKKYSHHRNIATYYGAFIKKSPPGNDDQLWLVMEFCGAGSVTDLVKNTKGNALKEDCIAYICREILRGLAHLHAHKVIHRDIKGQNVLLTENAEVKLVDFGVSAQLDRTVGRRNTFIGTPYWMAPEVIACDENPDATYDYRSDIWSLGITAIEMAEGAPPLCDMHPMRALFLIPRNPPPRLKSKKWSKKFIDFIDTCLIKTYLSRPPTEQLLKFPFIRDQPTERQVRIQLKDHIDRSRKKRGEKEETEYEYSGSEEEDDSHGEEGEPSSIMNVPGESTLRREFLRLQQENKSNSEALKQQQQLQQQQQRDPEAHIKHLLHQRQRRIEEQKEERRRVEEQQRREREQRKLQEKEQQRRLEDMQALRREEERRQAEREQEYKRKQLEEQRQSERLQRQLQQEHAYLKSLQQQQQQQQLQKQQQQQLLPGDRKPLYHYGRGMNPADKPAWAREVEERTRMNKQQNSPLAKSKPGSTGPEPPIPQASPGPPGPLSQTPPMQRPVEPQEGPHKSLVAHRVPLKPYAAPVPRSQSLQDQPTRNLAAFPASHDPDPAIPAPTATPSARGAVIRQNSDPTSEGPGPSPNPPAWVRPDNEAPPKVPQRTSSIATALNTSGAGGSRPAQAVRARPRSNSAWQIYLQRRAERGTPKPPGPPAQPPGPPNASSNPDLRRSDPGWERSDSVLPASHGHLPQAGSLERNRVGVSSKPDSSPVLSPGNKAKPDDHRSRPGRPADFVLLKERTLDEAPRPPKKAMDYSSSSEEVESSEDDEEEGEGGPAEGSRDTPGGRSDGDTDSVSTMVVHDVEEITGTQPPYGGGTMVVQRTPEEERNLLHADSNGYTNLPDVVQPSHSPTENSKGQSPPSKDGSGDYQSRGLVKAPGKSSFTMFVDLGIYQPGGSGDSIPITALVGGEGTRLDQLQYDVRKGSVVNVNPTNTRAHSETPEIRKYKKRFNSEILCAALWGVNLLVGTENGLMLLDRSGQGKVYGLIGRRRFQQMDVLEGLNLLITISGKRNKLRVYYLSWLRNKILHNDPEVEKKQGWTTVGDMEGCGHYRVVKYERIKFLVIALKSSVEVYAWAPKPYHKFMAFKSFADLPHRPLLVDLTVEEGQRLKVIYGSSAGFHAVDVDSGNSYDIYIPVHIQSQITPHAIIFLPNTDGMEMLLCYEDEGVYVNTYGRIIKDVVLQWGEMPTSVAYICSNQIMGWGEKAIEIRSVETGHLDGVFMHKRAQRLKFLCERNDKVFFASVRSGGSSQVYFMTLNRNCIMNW
GCK/MAP4K2, sequence (Q12851 whole entry): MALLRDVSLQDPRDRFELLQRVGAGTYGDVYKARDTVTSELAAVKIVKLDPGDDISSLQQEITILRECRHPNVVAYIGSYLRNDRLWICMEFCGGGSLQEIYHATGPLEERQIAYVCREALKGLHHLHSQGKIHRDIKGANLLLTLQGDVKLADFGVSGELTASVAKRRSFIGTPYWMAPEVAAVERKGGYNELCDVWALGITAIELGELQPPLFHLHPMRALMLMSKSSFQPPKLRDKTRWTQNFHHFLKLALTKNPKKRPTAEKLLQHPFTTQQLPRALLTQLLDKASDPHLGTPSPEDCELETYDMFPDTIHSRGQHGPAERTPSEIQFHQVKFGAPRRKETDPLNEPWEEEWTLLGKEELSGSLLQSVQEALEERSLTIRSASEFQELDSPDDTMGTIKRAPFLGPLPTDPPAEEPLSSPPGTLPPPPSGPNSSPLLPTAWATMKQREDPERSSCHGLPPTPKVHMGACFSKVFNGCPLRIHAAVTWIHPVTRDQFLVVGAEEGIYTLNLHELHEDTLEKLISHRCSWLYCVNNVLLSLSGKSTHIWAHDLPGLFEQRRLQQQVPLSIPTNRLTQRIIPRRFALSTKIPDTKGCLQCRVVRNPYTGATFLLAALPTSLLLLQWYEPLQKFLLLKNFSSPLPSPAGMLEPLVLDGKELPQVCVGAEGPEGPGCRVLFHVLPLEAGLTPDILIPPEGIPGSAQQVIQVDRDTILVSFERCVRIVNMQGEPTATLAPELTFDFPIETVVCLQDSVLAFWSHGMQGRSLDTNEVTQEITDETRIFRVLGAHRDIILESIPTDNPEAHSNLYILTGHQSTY
MLK3/MAP3K11, sequence (Q16584 whole entry): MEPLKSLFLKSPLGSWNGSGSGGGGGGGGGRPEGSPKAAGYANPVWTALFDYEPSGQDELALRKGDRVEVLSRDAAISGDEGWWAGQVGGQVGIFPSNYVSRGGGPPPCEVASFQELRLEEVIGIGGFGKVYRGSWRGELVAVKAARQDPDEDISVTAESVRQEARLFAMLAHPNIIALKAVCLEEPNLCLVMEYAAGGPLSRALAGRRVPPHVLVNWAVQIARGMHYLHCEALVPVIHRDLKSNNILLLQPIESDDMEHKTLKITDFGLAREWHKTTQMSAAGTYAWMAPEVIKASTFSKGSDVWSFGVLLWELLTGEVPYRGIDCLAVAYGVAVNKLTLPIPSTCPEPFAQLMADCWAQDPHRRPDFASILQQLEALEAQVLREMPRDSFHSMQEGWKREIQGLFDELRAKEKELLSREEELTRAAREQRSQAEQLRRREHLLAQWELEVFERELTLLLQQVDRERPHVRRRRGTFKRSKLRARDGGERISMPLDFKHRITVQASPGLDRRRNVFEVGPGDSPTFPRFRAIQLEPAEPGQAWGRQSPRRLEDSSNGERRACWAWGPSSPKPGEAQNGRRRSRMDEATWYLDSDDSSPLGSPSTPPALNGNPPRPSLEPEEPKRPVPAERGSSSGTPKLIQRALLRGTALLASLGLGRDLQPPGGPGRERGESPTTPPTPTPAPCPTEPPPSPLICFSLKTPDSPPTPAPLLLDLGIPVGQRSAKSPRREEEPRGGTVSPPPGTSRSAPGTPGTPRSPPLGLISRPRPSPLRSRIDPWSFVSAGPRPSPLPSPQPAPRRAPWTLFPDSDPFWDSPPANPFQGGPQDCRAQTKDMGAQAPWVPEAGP

Structure (SMILES): COc1cccc(-c2cn(-c3ccccc3)c3nc[nH]c(=O)c23)c1 [Ex-22]
fold selectivity for MAP4K4 over Aurora B [1]: (199) fold | IC50 [1]: 31600 nM | fold selectivity for MAP4K4 over MLK3/MAP3K11 [2]: (199) fold | IC50 [2]: 31600 nM | fold selectivity for MAP4K4 over ABL1 [3]: (199) fold | IC50 [3]: 31600 nM | fold selectivity for MAP4K4 over FLT3 [4]: (199) fold | IC50 [4]: 31600 nM | fold selectivity for MAP4K4 over GCK/MAP4K2 [5]: (50) fold | IC50 [5]: 7940 nM | fold selectivity for MAP4K4 over VEGFR [6]: (79) fold | pIC50 VEGFR [6]: 4.9 | fold selectivity for MAP4K4 over KHS/MAP4K5 [7]: (199) fold | IC50 [7]: 437 nM | IC50 [8, 16]: 100 to 1000 nM | IC50 [8, 17]: 158 nM | fold selectivity for MAP4K4 over GSK3β [9]: (199) fold | IC50 [9]: 31600 nM | fold selectivity for MAP4K4 over MLK1/MAP3K9 [10]: (25) fold | IC50 [10]: 3980 nM | IC50 [11]: 200 nM | fold selectivity for MAP4K4 over GLK/MAP4K3 [12]: (199) fold | IC50 [12]: 31600 nM | IC50 [13]: 6.61 nM

Structure (SMILES): O=c1[nH]cnc2c1c(-c1ccc(OCCCN3CCOCC3)cc1)cn2-c1ccccc1 [Ex-27]
fold selectivity for MAP4K4 over Aurora B [1]: (1584) fold | IC50 [1]: 10000 nM | fold selectivity for MAP4K4 over ABL1 [3]: (501) fold | IC50 [3]: 3160 nM | fold selectivity for MAP4K4 over FLT3 [4]: (1258) fold | IC50 [4]: 7940 nM | fold selectivity for MAP4K4 over GCK/MAP4K2 [5]: (31) fold | IC50 [5]: 200 nM | fold selectivity for MAP4K4 over VEGFR [6]: (125) fold | pIC50 VEGFR [6]: 6.1 | fold selectivity for MAP4K4 over KHS/MAP4K5 [7]: (6) fold | IC50 [7]: 39.8 nM | IC50 [8, 16]: ≤ 100 nM | IC50 [8, 17]: 6.31 nM | fold selectivity for MAP4K4 over GSK3β [9]: (5011) fold | IC50 [9]: 31600 nM | fold selectivity for MAP4K4 over MLK1/MAP3K9 [10]: (13) fold | IC50 [10]: 79.4 nM | IC50 [11]: 10 nM | fold selectivity for MAP4K4 over GLK/MAP4K3 [12]: (251) fold | IC50 [12]: 1580 nM | IC50 [13]: 6.31 nM

Structure (SMILES): CC(C)(O)CCOc1ccc(-c2cn(-c3ccccc3)c3nc[nH]c(=O)c23)cc1 [Ex-40, 5-(4-(3-hydroxy-3-methylbutoxy)phenyl)-7-phenyl-3,7-dihydro-4H-pyrrolo[2,3-d]pyrimidin-4-one]
EC50 [14]: < 1000 nM | IC50 [8, 16]: ≤ 100 nM

Structure (SMILES): O=c1[nH]cnc2c1c(-c1ccc(OCCO)cc1F)cn2-c1ccccc1 [Ex-56, 5-[2-Fluoro-4-(2-hydroxy-ethoxy)-phenyl]-7-phenyl-3,7-dihydro-pyrrolo[2,3-d]pyrimidin-4-one]
fold selectivity for MAP4K4 over Aurora B [1]: (1258) fold | IC50 [1]: 6310 nM | fold selectivity for MAP4K4 over MLK3/MAP3K11 [2]: (39) fold | IC50 [2]: 200 nM | fold selectivity for MAP4K4 over ABL1 [3]: (398) fold | IC50 [3]: 2000 nM | fold selectivity for MAP4K4 over FLT3 [4]: (3162) fold | IC50 [4]: 15800 nM | fold selectivity for MAP4K4 over GCK/MAP4K2 [5]: (79) fold | IC50 [5]: 398 nM | fold selectivity for MAP4K4 over VEGFR [6]: (6309) fold | pIC50 VEGFR [6]: 4.5 | fold selectivity for MAP4K4 over NUAK [15]: (501) fold | pIC50 NUAK [15]: 5.6 | fold selectivity for MAP4K4 over KHS/MAP4K5 [7]: (199) fold | IC50 [7]: 1000 nM | IC50 [8, 16]: ≤ 100 nM | IC50 [8, 17]: 5.01 nM | fold selectivity for MAP4K4 over MLK1/MAP3K9 [10]: (39) fold | IC50 [10]: 200 nM | IC50 [11]: 20 nM | fold selectivity for MAP4K4 over GLK/MAP4K3 [12]: (6309) fold | IC50 [12]: 31600 nM | IC50 [13]: 7.94 nM

Structure (SMILES): NC(=O)Cc1ccc(-c2cn(-c3ccccc3)c3nc[nH]c(=O)c23)cc1 [Ex-83, 2-[4-(4-Oxo-7-phenyl-4,7-dihydro-3H-pyrrolo[2,3-d]pyrimidin-5-yl)-phenyl]-acetamide]
IC50 [8, 16]: ≤ 100 nM

Structure (SMILES): O=c1[nH]cnc2c(-c3ccc(OCCCN4CCOCC4)cc3)cn(-c3ccccc3)c12 [Ex-84, 7-[4-(3-Morpholin-4-yl-propoxy)-phenyl]-5-phenyl-3,5-dihydro-pyrrolo[3,2-d]pyrimidin-4-one]
IC50 [8, 16]: 100 to 1000 nM

Structure (SMILES): COc1ccc(-n2cc(-c3ccc(OCCCN(C)C)cc3)c3nc[nH]c(=O)c32)cc1 [Ex-85]
IC50 [8, 16]: ≤ 100 nM

Now from value to compound:

IC50 [8, 16]: ≤ 100 nM
Structure (SMILES): CN1CCC(Oc2ccc(-c3cn(-c4ccccc4)c4c(=O)[nH]cnc34)cc2)CC1 [Ex-86]

IC50 [8, 16]: > 1000 nM
Structure (SMILES): CC(C)(O)COc1ccc(-c2cn(-c3ccccc3)c3c(=O)[nH]cnc23)cc1 [Ex-87]

IC50 [8, 16]: 100 to 1000 nM
Structure (SMILES): O=c1[nH]cnc2c(-c3ccc(OCC(O)CO)cc3)cn(-c3ccccc3)c12 (stereo not drawn) [Ex-88, 7-[4-(2,3-Dihydroxypropoxy)-phenyl]-5-phenyl-3,5-dihydropyrrolo[3,2-d]pyrimidin-4-one]

IC50 [8, 16]: 100 to 1000 nM
Structure (SMILES): O=c1[nH]cnc2c(-c3ccc(OCC(O)CN4CCOCC4)cc3)cn(-c3ccccc3)c12 (stereo not drawn) [Ex-89]

IC50 [8, 16]: 100 to 1000 nM
Structure (SMILES): CN(CC(O)COc1ccc(-c2cn(-c3ccccc3)c3c(=O)[nH]cnc23)cc1)C1CC1 (stereo not drawn) [Ex-90]

IC50 [8, 16]: 100 to 1000 nM
Structure (SMILES): O=c1[nH]cnc2c(-c3ccc(OCC(O)CN4CCCC4)cc3)cn(-c3ccccc3)c12 (stereo not drawn) [Ex-91]
